Literature values in patent US7129249B2, “Heterocyclic amide derivatives as inhibitors of glycogen phoshorylase” (AstraZeneca AB, priority 2002, dated 2006).

Columns and labels:
conscious dogs = settings: following a glucagon challenge
db/db and ob/ob mice = db/db and ob/ob mice following treatment

Row | SMILES | arterial plasma glucose (conscious dogs) | hepatic glucose output (conscious dogs) | glucagon stimulated glycogenolysis (hepatocytes) | glucose output (hepatocytes) | plasma glucose concentration (db/db and ob/ob mice)
1 | CCN1C(C)=C(C(=O)OC(C)C)C(c2ccccc2Cl)C2=C1COC2=O (centres unmarked) [Bay R 3401] | reduced significantly | reduced significantly | – | – | –
2 | CN(C)C(=O)[C@H](O)[C@H](Cc1ccccc1)NC(=O)c1cc2cc(Cl)ccc2[nH]1 [CP91149] | – | – | reduce | reduce | reduced, in a dose related manner
3 | O=C(N[C@@H](Cc1ccc(F)cc1)C(=O)N1CCC(O)CC1)c1cc2cc(Cl)ccc2[nH]1 [CP320626] | – | – | reduce | reduce | reduced, in a dose related manner
